According to PMC3552554 (Thrombosis and haemostasis, 2010):
Non-standard residues stand in square brackets, D forms with d. Residues, ends and D or L forms follow the SMILES beside them. Oic = O=C(O)[C@@H]1C[C@@H]2CCCC[C@@H]2N1; Phe(4-Me) = Cc1ccc(C[C@H](N)C(=O)O)cc1

Tests used:
thrombin [1] = conditions: direct thrombin inhibitor; cited from earlier work
thrombin [2] = molecular target: T1, thrombin (Homo sapiens, UniProt P00734); experiment: Plasma thrombin clotting time after oral treatment; type: in vivo, mouse; conditions: 3 mg/ml in drinking water
PC3-luc cells [3] = type: cell-based, human
[4] = system: carotid artery thrombosis; conditions: cited from earlier work
human platelets = conditions: cited from earlier work
PC3-luc cells [5] = experiment: Matrigel invasion assay, α-thrombin-stimulated; type: cell-based, human; conditions: 1 nM α-thrombin overnight, p = 0.02, 3 independent experiments
PC3-luc tumors = experiment: PC3-luc tumor growth in nude mice; type: in vivo; conditions: oral 3 mg/ml in drinking water
PC3 tumor vessels = experiment: PECAM; type: in vivo, nude mice; conditions: treated tumors, 3 mg/ml in drinking water; untreated 4.6 ± 2.1/hpf, p = 0.04
thrombin [6] = molecular target: T1, thrombin; conditions: cited from earlier work
Tail bleeding time = type: in vivo, mouse; conditions: 3 mg/ml in drinking water, 5 days; n = 6; untreated 79±11 sec (n = 5), p = 0.38
[7] = administered intravenously; cited from earlier work
[8] = 3 mg/ml in drinking water; cited from earlier work
[9] = cited from earlier work

## Cc1ccc(C[C@H](NC(=O)[C@@H](C)NC(=O)[C@@H]2CCCN2C(=O)[C@@H]2C[C@@H]3CCCC[C@@H]3N2C(=O)[C@H](N)CCCNC(=N)N)C(N)=O)cc1 [FM19, D-Arg-Oic-Pro, D-Ala-Phe(pMe)] (H-[dR][Oic]P[dA][Phe(4-Me)]-NH2; N-terminus and C-terminus assumed)
Thrombin [1]
  Ki: 4.4 ± 2.4 µM
Thrombin [2]; 5 days, n = 6, untreated 16±1 sec, p < 0.003
  thrombin clotting time: 22 ± 1 s
Thrombin [2]; treated vs untreated
  increase in the thrombin clotting time: 1.4 fold
PC3-luc cells [3]
  IC50: 15 µM
PC3-luc cells [3]; PC3-luc cells, 1 nM α-thrombin
  concentration that inhibited α-thrombin-induced calcium mobilization: 1 to 100 µM
[4]; 3 mg/ml in drinking water, rose Bengal assay
  effect on time to carotid artery occlusion: does not prolong the mouse bleeding time or delay time to carotid artery occlusion
[4]; 5 mg/ml in drinking water
  effect on induced arterial thrombosis: delays induced arterial thrombosis
[4]; 5 mg/ml steady-state oral
  prolongation of the arterial thrombosis time: 2.7 fold
Human platelets
  inhibits the threshold of α-thrombin-induced human platelet aggregation: 8.4 ± 4.7 µM
PC3-luc cells [5]
  lowest concentration that significantly decreased the number of invading cells: 0.1 µM
PC3-luc tumors; 5 weeks, 10 tumors, untreated 0.82 ± 0.32 g, p = 0.04
  mean tumor weight: 0.5 ± 0.31 g
PC3-luc tumors; day 14 to day 28, bioluminescence normalized to day 7, untreated 0.55 ± 0.35, p = 0.038
  mean tumor growth rate: 0.26 ± 0.17 fold change/day
PC3 tumor vessels
  number of large vessels (> 10 microns): 1.4 ± 1.4 /hpf
Thrombin [6]; 3 mg/ml in drinking water, after 5 days
  prolongation of the plasma thrombin clotting time: 1.4 times
Thrombin [6]; 5 mg/ml steady-state oral
  prolongation of the thrombin clotting time: 7.3 fold

## Cc1ccc(C[C@H](NC(=O)[C@@H](C)NC(=O)[C@@H]2CCCN2C(=O)[C@@H]2C[C@@H]3CCCC[C@@H]3N2C(=O)[C@H](N)CCCN=C(N)N)C(N)=O)cc1 [FM19, D-Arg-Oic-Pro, D-Ala-Phe(pMe)] (H-[dR][Oic]P[dA][Phe(4-Me)]-NH2)
Tail bleeding time
  mean tail bleeding time: 92 ± 8 s
[7]
  clearance: 8.2 ± 5.1 mL/min/kg
  t1/2α: 32.5 ± 2.9 min
[8]
  effect on mouse bleeding time: does not prolong the mouse bleeding time
[9]; 5 mg/ml steady-state oral
  plasma concentration: 173 ± 16 ng/mL
[9]; oral 3 mg/ml in the drinking water, after 5 days
  steady-state plasma concentration: 80 ng/mL
